Residues, ends and D or L forms follow the SMILES beside them.
What was measured:
[1] = Ocular tissue concentration of ONL1204 after intravitreal injection in rabbit eye (LC-MS/MS); conditions: rabbit vitreous humor; single dose 0.1 mg/eye IVT, days 0 to 168
Protocol: Standards and blanks were vortex mixed. […] Two hundred (200) uL of water was added.
The samples were then vortex mixed for 5 minutes.
The samples were dried with nitrogen at 35° C.

[2] = test system: retinal pigment epithelial cell death; assay: Sodium iodate (NaIO3) challenge study, lesion area by fluorescein angiography; format: in vivo; conditions: rabbit
Protocol: The resulting area was then measured.

**Q.** For `CC[C@H](C)[C@H](NC(=O)[C@H](Cc1ccc(O)cc1)NC(=O)[C@H](CC(N)=O)NC(=O)[C@@H](NC(=O)[C@H](C)NC(=O)CNC(=O)[C@H](CC(C)C)NC(=O)[C@H](Cc1ccc(O)cc1)NC(=O)[C@@H](NC(=O)[C@H](Cc1cnc[nH]1)NC(=O)[C@@H](N)Cc1cnc[nH]1)[C@@H](C)CC)C(C)C)C(=O)N[C@@H](Cc1ccc(O)cc1)C(N)=O` [ONL1204] (H-HHIYLGAVNYIY-NH2), which “t1/2 (half-life in the vitreous)” value [1] is on record?
**A.** 279.8 days

**Q.** And the “Lesion size vs negative control” value ([2]; 25 ug per eye IVT on Day 0, NaIO3 challenge Day 4)?
**A.** significantly lower than negative control

**Q.** What about the “Lesion size vs negative control” value ([2]; 100 ug per eye IVT on Day 0, NaIO3 challenge Day 4) of the same compound?
**A.** significantly lower than negative control

**Q.** What about the “Lesion size vs negative control” value ([2]; 100 ug per eye IVT on Day 0, NaIO3 challenge Day 14) of the same compound?
**A.** significantly smaller lesion size then both negative controls and those treated with 25 ug

**Q.** What about the “Lesion size vs negative control” value ([2]; 100 ug per eye IVT on Day 0, NaIO3 challenge Day 28) of the same compound?
**A.** significantly smaller lesion size then both negative control animals and those treated with 25 ug

Source: patent publication US20240285724A1, “METHODS AND COMPOSITIONS FOR TREATING OCULAR DISORDERS AND DISEASES” (ONL Therapeutics, Inc., priority 2021, published 2024)
